Here are results for one substance from patent publication US11224577B2, “Treating infection by a platelet-targeting microbe using nanoparticles” (The Regents of the University of California, priority 2015, dated 2022).

The format of this data set is physicochemical. As to the method: 100 nm polymeric cores were prepared using 0.67 dL g^−1 carboxyl-terminated 50:50 poly(lactic-co-glycolic) acid (PLGA) (LACTEL Absorbable Polymers) in a nanoprecipitation process. 1 mL of 10 mg mL^−1 PLGA solution in acetone was added dropwise to 3 mL of water. For fluorescently labeled nanoformulations, 1,1′-dioctadecyl-3,3,3′,3′-tetramethylindodicarbocyanine perchlorate (DiD, ex=644 nm/em=665 nm, Life Technologies) was loaded into the polymeric cores at 0.1 wt %. The mixture was then stirred in open air for 1 h and placed in vacuum for another 3 h. The resulting nanoparticle solution was filtered with 10 kDa MWCO Amicon Ultra-4 Centrifugal Filters (Millipore). Platelet membrane cloaking was then accomplished by dispersing and fusing platelet membrane vesicles with PLGA particles via sonication using an FS30D bath sonicator at a frequency of 42 kHz and a power of 100 W for 2 min. […] The nanoparticle solutions were subject to either a freeze-thaw cycle or lyophilization followed by resuspension. The resulting particle solution was then monitored for particle size using DLS. […] RBCNPs were prepared using the same polymeric cores and RBC membranes of equivalent total surface area to the platelet membranes using a previously described protocol^16.

PNPs: the colloidal stability entry was “Improved colloidal stability”; the “size and stability after storage” value is “retain their size and stability”.
